These results are taken from article PMC6433648 (British Journal of Pharmacology, 2019).

Some results are limits rather than exact numbers.

Assay [1] concerns the target T1, rat Nluc‐A1AR (Rattus norvegicus, UniProt P25099).
T1 sequence (P25099 2-326 limits assumed): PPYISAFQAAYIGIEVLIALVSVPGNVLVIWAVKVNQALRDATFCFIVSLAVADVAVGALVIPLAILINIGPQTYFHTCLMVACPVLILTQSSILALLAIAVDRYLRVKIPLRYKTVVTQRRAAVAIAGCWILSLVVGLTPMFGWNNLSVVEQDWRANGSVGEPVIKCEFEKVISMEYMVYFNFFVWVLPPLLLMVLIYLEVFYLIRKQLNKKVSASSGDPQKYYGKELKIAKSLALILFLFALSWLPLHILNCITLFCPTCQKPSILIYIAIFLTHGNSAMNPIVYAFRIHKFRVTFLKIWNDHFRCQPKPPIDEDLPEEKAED
The assay is described as follows: NanoBRET competition binding: inhibition of specific binding of CA200645.

The target in assay [2] is T2, human Nluc‐A1AR (Homo sapiens, UniProt P30542).
T2 sequence (P30542 2-326 limits assumed): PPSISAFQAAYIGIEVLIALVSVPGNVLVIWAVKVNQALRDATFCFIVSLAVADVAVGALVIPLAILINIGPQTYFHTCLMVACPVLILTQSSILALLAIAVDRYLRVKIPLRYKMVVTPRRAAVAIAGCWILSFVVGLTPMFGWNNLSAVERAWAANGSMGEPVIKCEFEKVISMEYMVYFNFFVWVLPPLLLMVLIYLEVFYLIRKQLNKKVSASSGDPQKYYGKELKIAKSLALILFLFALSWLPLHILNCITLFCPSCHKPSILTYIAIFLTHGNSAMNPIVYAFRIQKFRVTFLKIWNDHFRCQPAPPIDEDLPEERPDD
The assay is described as above. As to conditions: for IC50: Nluc‐human A1AR, 25 nM CA200645, HEK293T cells; for concentrations producing a small direct inhibition of CA200645 binding: more evident at the human A1‐receptor; for Ki: read-out: pK i ± SEM (converted). Also on record: expressed in transfected cells. The source says:
The IC50 values from competition‐binding curves were used to calculate the K i of the unlabelled ligands using the Cheng–Prusoff equation: Ki=IC50/1+L/KD, where [L] is the concentration of fluorescent ligand in nM, and K D is the dissociation constant of the fluorescent ligand in nM. The K D values used were obtained from the saturation‐binding experiments.

Assay [3] deals with T1, rat Nluc‐A1AR. The assay is described as follows: Fluorescent agonist saturation binding in presence/absence of allosteric modulator (NanoBRET). Also on record: expressed in transfected cells; key to B max: Bmax expressed as BRET ratio from saturation fit. The following applies: Rat Nluc A1R. An excerpt: (§1) Pooled fluorescent agonist saturation assays obtained in the presence and absence of a fixed concentration of allosteric modulator were simultaneously fitted to the following equation: BRET ratio=Bmax×B/B+KD+M×B+C.
On the technique in general: In BRET a luciferase serves as donor, and the signal depends on an acceptor being close.

For assay [4], the target named is T2, human Nluc‐A1AR. Described as above. Also on record: expressed in transfected cells; key to B max: Bmax expressed as BRET ratio from saturation fit. As to conditions: Human Nluc A1R.
Text: as §1

The next assay concerns human A1‐receptors. Also on record: method as in May et al., 2010. As to conditions: PD 81,723 10 μM, CHO cells; ref May et al., 2010; cited from earlier work.
The target in assay [5] is T2, human Nluc‐A1AR. As to the kind of experiment: cell-based.
Method: (§2) The fluorescent antagonist saturation, competition‐binding, allosteric modulator binding cooperativity, and the fluorescent agonist saturations in the presence/absence of allosteric modulator assays were performed on the stably transfected HEK293T cells expressing human or rat Nluc‐A1R. The cells were seeded 24 hr before experimentation in white walled, poly‐D‐lysine coated 96‐well microplates (Thermo Scientific, Loughborough, UK) at a density of 25,000 cells per well.
(§3) For each experiment, ligands were added simultaneously, and the 96‐well plate was incubated for 1 hr at 37°C (no CO2). Following this, the Nluc substrate furimazine (Promega) was added to give a final concentration of 10 μM and then incubated for 5 min at 37°C. For all experiments, the luminescence and resulting BRET were measured using the PHERAstar FS plate reader (BMG Labtech) using filtered light emissions at 460 nm (80 nm bandpass) and >610 nm (longpass) at room temperature. The raw BRET ratio was calculated by dividing the >610 nm emission by the 460 nm emission.
The target of assay [6] is T1, rat Nluc‐A1AR. As to the kind of experiment: cell-based. As to conditions: agonist pIC50, Rat, 25 nM CA200645.
Method: as §2, §3
Where [7] appears, read: VCP171 0 (control), maximal specific binding (BRET ratio fit).

Consider `Nc1scc(-c2cccc(C(F)(F)F)c2)c1C(=O)c1ccccc1` [VCP171, (2‐amino‐4‐(3‐(trifluoromethyl)phenyl)thiophen‐3‐yl)(phenyl)methanone], for which, on rat Nluc‐A1AR [1], the IC50 (usually the midpoint of a concentration-inhibition curve) was 129000 nM and the Ki was 70800 nM. On human Nluc‐A1AR [2], the IC50 is 40700 nM, the “concentrations producing a small direct inhibition of CA200645 binding” value was 10 to 100 µM and the Ki was 23400 nM.
Consider `O=C(CCCCCNC(=O)COc1ccc(/C=C/C2=[N+]3C(=Cc4ccc(-c5cccs5)n4[B-]3(F)F)C=C2)cc1)NCCCCNc1ncnc2c1ncn2[C@@H]1O[C@H](CO)[C@@H](O)[C@H]1O` [ABA‐X‐BY630], for which the B max at rat Nluc‐A1AR [3] (PD 81,723 0 (control)) is 0.031 ± 0.002; on rat Nluc‐A1AR [3] (setting [7]) it was 0.031 ± 0.014; at rat Nluc‐A1AR [3] (with 10 μM PD 81,723) it was 0.040 ± 0.005; on rat Nluc‐A1AR [3] (with 10 μM VCP171), 0.048 ± 0.009; on rat Nluc‐A1AR [3] (with 30 μM PD 81,723), 0.054 ± 0.007; on rat Nluc‐A1AR [3] (with 30 μM VCP171), 0.072 ± 0.021. Also, the B max is given as 0.019 ± 0.002 at human Nluc‐A1AR [4] (PD 81,723 0 (control)); 0.019 ± 0.002 on human Nluc‐A1AR [4] (setting [7]); 0.035 ± 0.005 on human Nluc‐A1AR [4] (with 10 μM PD 81,723); 0.033 ± 0.004 on human Nluc‐A1AR [4] (with 10 μM VCP171); 0.035 ± 0.008 at human Nluc‐A1AR [4] (with 30 μM PD 81,723); 0.036 ± 0.003 at human Nluc‐A1AR [4] (with 30 μM VCP171). For the same molecule, the Kd (commonly the concentration at which binding is half-saturated) at rat Nluc‐A1AR [3] (PD 81,723 0 (control)) was 955 nM; on rat Nluc‐A1AR [3] (VCP171 0 (control)), 891 nM; at human Nluc‐A1AR [4] (VCP171 0 (control)), 589 nM.
`CCNC(=O)[C@H]1O[C@@H](n2cnc3c(NCCCCNC(=O)CCCCCNC(=O)COc4ccc(/C=C/C5=[N+]6C(=Cc7ccc(-c8cccs8)n7[B-]6(F)F)C=C5)cc4)ncnc32)[C@H](O)[C@@H]1O` [ABEA‐X‐BY630]: the B max at rat Nluc‐A1AR [3] (PD 81,723 0 (control)) is reported as 0.015 ± 0.002; on rat Nluc‐A1AR [3] (setting [7]) it was 0.010 ± 0.001; at rat Nluc‐A1AR [3] (with 10 μM PD 81,723) it was 0.018 ± 0.002; at rat Nluc‐A1AR [3] (with 10 μM VCP171) it was 0.021 ± 0.002; on rat Nluc‐A1AR [3] (with 30 μM PD 81,723), 0.032 ± 0.01; on rat Nluc‐A1AR [3] (with 30 μM VCP171), 0.026 ± 0.003. The B max on human Nluc‐A1AR [4] (PD 81,723 0 (control)) stood at 0.007 ± 0.001; on human Nluc‐A1AR [4] (setting [7]) it was 0.006 ± 0.001; on human Nluc‐A1AR [4] (with 10 μM PD 81,723), 0.012 ± 0.003; at human Nluc‐A1AR [4] (with 10 μM VCP171), 0.013 ± 0.002; on human Nluc‐A1AR [4] (with 30 μM PD 81,723) it was 0.016 ± 0.004; on human Nluc‐A1AR [4] (with 30 μM VCP171) it was 0.016 ± 0.002. Moreover, the dissociation constant Kd on rat Nluc‐A1AR [3] (PD 81,723 0 (control)) is 1820 nM; at rat Nluc‐A1AR [3] (VCP171 0 (control)) it was 891 nM; at human Nluc‐A1AR [4] (PD 81,723 0 (control)), 977 nM; on human Nluc‐A1AR [4] (VCP171 0 (control)), 1020 nM.
In the case of `Cc1sc(N)c(C(=O)c2cccc(C(F)(F)F)c2)c1C` [PD 81,723, (2‐amino‐4,5‐dimethylthiophen‐3‐yl)(3‐(trifluoromethyl)phenyl)methanone], the “effect on dissociation of BY630‐ABA” value with human A1‐receptors is given as “slow the dissociation”. Besides, the IC50 at rat Nluc‐A1AR [1] is greater than 100000 nM. Besides, the “concentrations producing a small direct inhibition of CA200645 binding” value at human Nluc‐A1AR [2] is greater than 100 µM.
At rat Nluc‐A1AR [1], `Nc1sc(-c2ccc(C(=O)NCCCCCCNc3ncnc4c3ncn4[C@@H]3O[C@H](CO)[C@@H](O)[C@H]3O)cc2)c(-c2cccc(C(F)(F)F)c2)c1C(=O)c1ccccc1` [VCP746, 4‐(5‐amino‐4‐benzoyl‐3‐(3‐(trifluoromethyl)phenyl)thiophen‐2‐yl)‐N‐(6‐(9‐((2R,3R,4S,5R)‐3,4‐dihydroxy‐5‐(hydroxylmethyl)tetrahydro‐furan‐2‐yl)‐9H‐purin‐6‐ylamino)hexyl)benzamide] had a concentration for half-maximal inhibition (IC50) of 17400 nM and a Ki of 9550 nM.
At rat Nluc‐A1AR [1], `O=C(Cc1ccccc1)Nc1nc2ccc(Cl)cc2c2nc(-c3ccco3)nn12` [MRS1220, N‐[9‐chloro‐2‐(furan‐2‐yl)‐[1,2,4]triazolo[1,5‐c]quinazolin‐5‐yl]‐2‐phenylacetamide] had an IC50 of 1950 nM and a Ki of 1070 nM.
For `N#Cc1c(N)nc(SCc2csc(-c3ccc(Cl)cc3)n2)c(C#N)c1-c1ccc(OCCO)cc1` [Capadenoson, 2‐amino‐6‐[[2‐(4‐chlorophenyl)‐1,3‐thiazol‐4‐yl]methylsulfanyl]‐4‐[4‐(2‐hydroxyethoxy)phenyl]pyridine‐3,5‐dicarbonitrile], the IC50 against human Nluc‐A1AR [5] was 282 nM; at rat Nluc‐A1AR [1] it was 186 nM; on rat Nluc‐A1AR [6] (PD 81,723 0 (control)), 275 nM; on rat Nluc‐A1AR [6] (VCP171 0 (control)), 251 nM; at human Nluc‐A1AR [2], 245 nM. Moreover, the Ki at rat Nluc‐A1AR [1] is 102 nM; at human Nluc‐A1AR [2], 141 nM.
